Earlier results on one compound are cited in patent publication US7816398B2, “Fatty alcohol drug conjugates” (Luitpold Pharmaceuticals, Inc., priority 2001, dated 2010).

For this series the following is noted: relative to irinotecan.

Take `CCc1c2c(nc3ccc(O)cc13)-c1cc3c(c(=O)n1C2)COC(=O)[C@]3(O)CC` [SN-38]: the “times more potent than Irinotecan” value was around 100 times.
